{"source": "patent US20110166132A1", "about": "“Gamma Secretase Modulators” (Amgen Inc., priority 2007, published 2011)"}
{"biological_target": "T1, gamma secretase (Homo sapiens, UniProt P49768)", "T1 construct": "HEK293 cells stably expressing full length Amyloid Precursor Protein (APP); endogenous in cells; host or cells: HEK 293 cells stably expressing full length APP", "experiment": "GSM cell-based assay: Aβ 42 inhibition or reduction in HEK 293 cells over-expressing APP (sandwich ELISA)", "details": "approximate IC50; HEK293 cells stably expressing full length APP, 24 hours incubation, 10-point dose response starting at 10 μM", "text": "GSM cell-based assays were designed to measure the modulation of Aβ 42 from HEK 293 cells over-expressing APP.\nThree simultaneous cell-based assays, namely Aβ 42 inhibition or reduction, Aβ 40 inhibition or reduction and a measurement of cell viability of the cells from which the Aβ 42/40 readout was obtained, together gave an interpretation of gamma secretase modulation (GSM). The assays measure Aβ 42 and Ab 40 from conditioned medium of test compound treated HEK 293 cells.\nHEK293 cells stably expressing full length Amyloid Precursor Protein (APP) were plated at a density of 100K cells/well in 96 well plates (Costar). The cells were cultivated for 6 hours at 37° C. and 5% CO2 in DMEM supplemented with 10% FBS. The test compounds were then added to cells in 10-point dose response concentrations with the starting concentration being 10 μM. The compounds were diluted from stock solutions in DMSO and the final DMSO concentration of the test compounds on cells was 0.1%. After 24 hours of incubation with the test compounds the supernatant conditioned media was collected and the Aβ 42, Aβ 40 levels were determined using a sandwich ELISA. A cell viability test (CellTiter-Blue Cell Viability assay, Promega) on the cells from which the conditioned medium was harvested for Aβ 42 or Aβ 40 readouts gave an indication of cell survivability as a possible reason for false positive Aβ 42 or 40 reduction or inhibition readout. The IC50 of the compound (for either Aβ 42 or Aβ 40) was calculated from the percent of control or percent inhibition of Aβ 42 or Aβ 40 as a function of the concentration of the test compound.\nThe sandwich ELISA to detect Aβ 42 or Aβ 40 was performed in 96 well microtiter plates, which were pre-treated with goat anti-rabbit IgG (Pierce). The capture and detecting antibody pair that were used to detect Aβ 42 and Aβ 40 from cell supernatants were rabbit monoclonal Antibody 42 (RabMAb 42) and affinity purified polyclonal Antibody 40 pAB40 (Biosource) as capture antibodies and biotinylated 6E10 (Signet Labs Inc.) as detection antibody. The optimal concentration for RabMAb 42 was 1 μg/ml in Superblock/TBS (Pierce) that was supplemented with 0.05% Tween 20 (Sigma). The optimal concentration for the pAb40 antibody was 3 μg/ml in Superblock/TBS (Pierce) that was supplemented with 0.05% Tween 20 (Sigma). Optimal concentration for the detection antibody 6E10-biotinylated was 0.5 μg/ml in Superblock/TBS (Pierce) that had been supplemented with 2% normal goat serum and 2% normal mouse serum.\nCellular supernatants were incubated with the capture antibody for 16-20 hours at 4° C., followed by 3 wash steps in TBS-tween (0.05%). The detecting antibody incubation was for 3 hours at 4° C., again followed by the wash steps as described previously. The final readout of the ELISA is Time-Resolved Fluorescence (counts per minute) using Delfia reagents Streptavidin-Europium and Enhancement solutions (Perkin Elmer) and the EnVision Multilabel plate reader (Perkin Elmer).", "units": {"IC50": "nM"}}
{"smiles": "Cc1cc(-c2ccc(NC(=O)C(C)c3cccc(C4CCN(CCO)CC4)c3)cc2)ccn1", "note": "(stereo not drawn) [Cpd 140]", "IC50": "> 10000"}
{"smiles": "Cc1cc(-c2ccc(NC(=O)c3cccc(C#N)c3)cc2)ccn1", "note": "[Cpd 275]", "IC50": "> 10000"}
{"smiles": "COCCNc1cccc(C(CC(C)C)C(=O)Nc2ccc(-c3ccnc(C)c3)cc2)n1", "note": "(stereo not drawn) [Cpd 182, 2-(6-((2-methoxyethyl)amino)-2-pyridinyl)-4-methyl-N-(4-(2-methyl-4-pyridinyl)-phenyl)pentanamide]", "IC50": "> 10000"}
{"smiles": "Cc1cc(-c2ccc(NC(=O)C(C)c3ccc(NC4CCOCC4)cc3)cc2)ccn1", "note": "(stereo not drawn) [Cpd 188, N-(4-(2-methyl-4-pyridinyl)phenyl)-2-(4-(tetrahydro-2H-pyran-4-ylamino)phenyl)-propanamide]", "IC50": 2590}
{"smiles": "Cc1cc(-c2ccc(NC(=O)C(C)c3cccc(-c4ccsc4)c3)cc2)ccn1", "note": "(stereo not drawn) [Cpd 174, N-(4-(2-methyl-4-pyridinyl)phenyl)-2-(3-(3-thiophenyl)phenyl)propanamide]", "IC50": 1270}
{"smiles": "Cc1cc(-c2ccc(NC(=O)[C@H](CC(C)C)c3cc(F)cc(F)c3)cc2)ccn1", "note": "[Cpd 190]", "IC50": 349}
{"smiles": "COc1cc(NC(=O)C(C)c2cccc(Br)c2)ccc1-c1ccnc(C)c1", "note": "(stereo not drawn) [Cpd 143]", "IC50": 485}
{"smiles": "Cc1cc(-c2ccc(NC(=O)C3(c4ccc(Cl)cc4Cl)CC3)cc2)ccn1", "note": "[Cpd 332]", "IC50": 1170}
{"smiles": "Cc1cc(-c2ccc(NC(=O)C3CCCO3)cc2)ccn1", "note": "(stereo not drawn) [Cpd 52]", "IC50": "> 10000"}
{"smiles": "Cc1cc(-c2ccc(NC(=O)Cc3n[nH]c4ccc(Br)cc34)cc2)ccn1", "note": "[Cpd 79, 2-(5-bromo-1H-indazol-3-yl)-N-(4-(2-methyl-4-pyridinyl)phenyl)acetamide]", "IC50": 1180}
{"smiles": "Cc1cc(-c2ccc(NC(=O)C3CC(=O)N(c4ccc(Cl)cc4)C3)cc2)ccn1", "note": "(stereo not drawn) [Cpd 308]", "IC50": "> 10000"}
{"smiles": "Cc1cc(-c2ccc(NC(=O)C(CC(C)C)c3ccc(N4CCCCC4)cc3)cc2)ccn1", "note": "(stereo not drawn) [Cpd 134, 4-methyl-N-(4-(2-methyl-4-pyridinyl)-phenyl)-2-(4-(1-piperidinyl)phenyl)-pentanamide]", "IC50": 242}
{"smiles": "CC(=O)N1CCN(c2ccc(-c3cccc([C@@H](C)C(=O)Nc4ccc(-c5ccnc(C)c5)cc4)c3)cc2)CC1", "note": "[Cpd 522]", "IC50": 320}
{"smiles": "Cc1cc(-c2ccc(NC(=O)C(C)c3cccc(Br)c3)c(C#N)c2)ccn1", "note": "(stereo not drawn) [Cpd 161, 2-(3-bromophenyl)-N-(2-cyano-4-(2-methyl-4-pyridinyl)phenyl)propanamide]", "IC50": "> 10000"}
{"smiles": "Cc1cc(-c2ccc(NC(=O)C(CC3CCC3)c3cccc(Br)c3)cc2)ccn1", "note": "(stereo not drawn) [Cpd 124, 2-(3-bromophenyl)-3-cyclobutyl-N-(4-(2-methyl-4-pyridinyl)phenyl)propanamide]", "IC50": 282}
{"smiles": "Cc1cc(-c2ccc(NC(=O)Cc3cc(C(F)(F)F)cc(C(F)(F)F)c3)cc2)ccn1", "note": "[Cpd 87, 2-(3,5-bis(trifluoromethyl)phenyl)-N-(4-(2-methyl-4-pyridinyl)phenyl)acetamide]", "IC50": 461}
{"smiles": "Cc1cc(-c2ccc(NC(=O)c3cc4ccc(F)cc4s3)cc2)ccn1", "note": "[Cpd 314]", "IC50": "> 10000"}
{"smiles": "Cc1cc(-c2ccc(NC(=O)C3CC(=O)c4ccccc43)cc2)ccn1", "note": "(stereo not drawn) [Cpd 120]", "IC50": "> 3330"}
{"smiles": "Cc1cccc([C@H](CC(C)C)C(=O)Nc2ccc(-c3ccnc(C)c3)cc2)c1", "note": "[Cpd 105, (2S)-4-methyl-2-(3-methylphenyl)-N-(4-(2-methyl-4-pyridinyl)phenyl)pentanamide]", "IC50": 1730}
{"smiles": "Cc1cc(-c2ccc(NC(=O)c3cc(C4CC4)on3)cc2)ccn1", "note": "[Cpd 22]", "IC50": 1580}
{"smiles": "COc1cc(C(C)C(=O)Nc2ccc(-c3ccnc(C)c3)cc2)ccc1NC(C)C", "note": "(stereo not drawn) [Cpd 575, 2-(3-methoxy-4-((1-methylethyl)amino)-phenyl)-N-(4-(2-methyl-4-pyridinyl)-phenyl)propanamide]", "IC50": 1520}
{"smiles": "Cc1cc(-c2ccc(NC(=O)Cc3ccc4oc(-c5ccncc5)nc4c3)cc2)ccn1", "note": "[Cpd 584, N-(4-(2-methyl-4-pyridinyl)phenyl)-2-(2-(4-pyridinyl)-1,3-benzoxazol-5-yl)-acetamide]", "IC50": "> 10000"}
{"smiles": "CC(=O)c1ccc(-c2cccc(C(C)C(=O)Nc3ccc(-c4ccnc(C)c4)cc3)c2)cc1", "note": "(stereo not drawn) [Cpd 158, 2-(4′-acetyl-3-biphenylyl)-N-(4-(2-methyl-4-pyridinyl)phenyl)propanamide]", "IC50": 139}
{"smiles": "Cc1cc(-c2ccc(NC(=O)c3cc(Cl)nc(Cl)c3)cc2)ccn1", "note": "[Cpd 51]", "IC50": "> 10000"}
{"smiles": "CCN(Cc1cc(OC)c(OC)c(OC)c1)c1ccc(C(C)C(=O)Nc2ccc(-c3ccnc(C)c3)cc2)cc1", "note": "(stereo not drawn) [Cpd 526, 2-(4-(ethyl(3,4,5-trimethoxybenzyl)amino)-phenyl)-N-(4-(2-methyl-4-pyridinyl)-phenyl)propanamide]", "IC50": 310}
{"smiles": "Cc1cc(-c2ccc(NC(=O)c3cn4cc(Br)ccc4n3)cc2)ccn1", "note": "[Cpd 315]", "IC50": 2160}
{"smiles": "Cc1cc(-c2ccc(NC(=O)c3cccc(C(F)(F)F)c3)cc2)ccn1", "note": "[Cpd 279]", "IC50": "> 10000"}
{"smiles": "Cc1cc(-c2ccc(NC(=O)C(C)c3cccc(N4CCN(c5ccccn5)CC4)c3)cc2)ccn1", "note": "(stereo not drawn) [Cpd 139, N-(4-(2-methyl-4-pyridinyl)phenyl)-2-(3-(4-(2-pyridinyl)-1-piperazinyl)phenyl)-propanamide]", "IC50": 166}
{"smiles": "Cc1cc(-c2ccc(NC(=O)C(CC(C)C)c3cccc(-c4ccc(N5CCN(C(=O)OC(C)(C)C)CC5)cc4)c3)cc2)ccn1", "note": "(stereo not drawn) [Cpd 228, tert-butyl 4-(3′-(3-methyl-1-((4-(2-methyl-4-pyridinyl)phenyl)carbamoyl)butyl)-4-biphenylyl)-1-piperazinecarboxylate]", "IC50": 135}
{"smiles": "Cc1cc(-c2ccc(NC(=O)Cc3cncc(Br)c3)cc2)ccn1", "note": "[Cpd 27, 2-(5-bromo-3-pyridinyl)-N-(4-(2-methyl-4-pyridinyl)phenyl)acetamide]", "IC50": 2450}
{"smiles": "Cc1cc(-c2ccc(NC(=O)Cc3ccccn3)cc2)ccn1", "note": "[Cpd 88, N-(4-(2-methyl-4-pyridinyl)phenyl)-2-(2-pyridinyl)acetamide]", "IC50": "> 10000"}
{"smiles": "Cc1cc(-c2ccc(NC(=O)Cc3cccc4ccccc34)cc2)ccn1", "note": "[Cpd 15, N-(4-(2-methyl-4-pyridinyl)phenyl)-2-(1-naphthalenyl)acetamide]", "IC50": 883}
{"smiles": "CCC(C(=O)Nc1ccc(-c2ccnc(C)c2)cc1)c1cccc(C)c1", "note": "(stereo not drawn) [Cpd 200, 2-(3-methylphenyl)-N-(4-(2-methyl-4-pyridinyl)phenyl)butanamide]", "IC50": 1050}
{"smiles": "Cc1cc(-c2ccc(NC(=O)C(CC3CC3)c3cccc(Br)c3)cc2)ccn1", "note": "(stereo not drawn) [Cpd 163, 2-(3-bromophenyl)-3-cyclopropyl-N-(4-(2-methyl-4-pyridinyl)phenyl)propanamide]", "IC50": 184}
{"smiles": "Cc1cc(-c2ccc(NC(=O)C(C)c3ccc(N(C)C(C)C)cc3)cc2)ccn1", "note": "(stereo not drawn) [Cpd 481, 2-(4-(methyl(1-methylethyl)amino)phenyl)-N-(4-(2-methyl-4-pyridinyl)phenyl)-propanamide]", "IC50": 2130}
{"smiles": "Cc1cc(-c2ccc(NC(=O)Cc3ccc(F)c(C(F)(F)F)c3)cc2)ccn1", "note": "[Cpd 351, 2-(4-fluoro-3-(trifluoromethyl)phenyl)-N-(4-(2-methyl-4-pyridinyl)phenyl)acetamide]", "IC50": 2390}
{"smiles": "Cc1cc(-c2ccc(NC(=O)c3ccccc3-c3ccccc3)cc2)ccn1", "note": "[Cpd 91]", "IC50": "> 10000"}
{"smiles": "COCCNc1cccc(C(C)C(=O)Nc2ccc(-c3ccnc(C)c3)cc2)c1", "note": "(stereo not drawn) [Cpd 166]", "IC50": 2840}
{"smiles": "Cc1cc(-c2ccc(NC(=O)C(C)(C)c3cc(C(F)(F)F)cc(C(F)(F)F)c3)cc2)ccn1", "note": "[Cpd 336]", "IC50": "> 10000"}
{"smiles": "COc1ccc(Cl)cc1C(=O)Nc1ccc(-c2ccnc(C)c2)cc1", "note": "[Cpd 10]", "IC50": 1380}
{"smiles": "Cc1cc(-c2ccc(NC(=O)[C@@H](C)c3ccccc3)cc2)ccn1", "note": "[Cpd 21, (2S)-N-(4-(2-methyl-4-pyridinyl)phenyl)-2-phenylpropanamide]", "IC50": 1700}
{"smiles": "Cc1cc(-c2ccc(NC(=O)C(C)c3ccc(N(CC4CC4)CC4CC4)cc3)cc2)ccn1", "note": "(stereo not drawn) [Cpd 172]", "IC50": 540}
{"smiles": "COc1ccc2cc([C@@H](C)C(=O)Nc3ccc(-c4ccnc(C)c4)cc3)ccc2c1", "note": "[Cpd 66, (2R)-2-(6-methoxy-2-naphthalenyl)-N-(4-(2-methyl-4-pyridinyl)phenyl)propanamide]", "IC50": 205}
{"smiles": "Cc1cc(-c2ccc(NC(=O)C(C)c3cccc(N4CCN(C)CC4)c3)cc2)ccn1", "note": "(stereo not drawn) [Cpd 138]", "IC50": "> 10000"}
{"smiles": "COc1cc(C(=O)Nc2ccc(-c3ccnc(C)c3)cc2)ccc1C", "note": "[Cpd 282]", "IC50": "> 10000"}
